pIC50: −log10 of the molar value. Some results are limits rather than exact numbers.

The target of the test is T1, Human MTHFD2 (Homo sapiens, UniProt P13995).
T1 construct: residues 36-350 in Uniport ID P13995; His6 (N); made in house; host or cells: E. coli
T1 sequence (P13995 36-350): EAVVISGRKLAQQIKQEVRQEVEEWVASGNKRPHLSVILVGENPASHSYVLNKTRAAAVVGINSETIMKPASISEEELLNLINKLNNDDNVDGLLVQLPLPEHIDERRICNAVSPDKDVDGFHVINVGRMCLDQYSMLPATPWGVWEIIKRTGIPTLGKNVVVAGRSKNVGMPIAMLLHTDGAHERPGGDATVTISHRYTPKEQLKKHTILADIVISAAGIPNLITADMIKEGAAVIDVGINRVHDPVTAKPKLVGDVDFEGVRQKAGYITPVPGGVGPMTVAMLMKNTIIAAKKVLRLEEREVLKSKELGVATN
Description: MTHFD2 Activity Assay (dehydrogenase activity, diaphorase/resazurin coupled fluorescence). It counts as biochemical. The following applies: inhibitory activity (IC50 and/or binding constant); 0.2 nM MTHFD2, 11 concentrations. The essentials: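 Steps: compound + 0.2 nM enzyme, 15 min, pH 8.0 Hepes buffer; add 70 μM CH2-THF, 1 mM NAD+, 100 μM resazurin, diaphorase; 30 min; quench with EDTA; read fluorescence. Data normalized to DMSO (100%) and no-enzyme (0%) wells.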
Consider `Cn1c([C@@H](N)Cc2ccncc2)nc2c1c(=O)n(Cc1cc3c(Cl)cccc3[nH]1)c(=O)n2C` [Example 449, (S)-8-(1-amino-2-(pyridin-4-yl)ethyl)-1-((4-chloro-1H-indol-2-yl)methyl)-3,7-dimethyl-1H-purine-2,6(3H,7H)-dione], for which the pIC50 (commonly the negative decadic logarithm of the IC50, by convention in mol/L) is 6.00 to 8.00.

The compound `Cn1c(NC[C@H](O)CO)nc2c1c(=O)n(Cc1ccc(Cl)c(Cl)c1)c(=O)n2C` [Example 14, 1-[(3,4-dichlorophenyl)methyl]-8-{[(2S)-2,3-dihydroxypropyl]amino}-3,7-dimethyl-2,3,6,7-tetrahydro-1H-purine-2,6-dione] gave a pIC50 of 6.00 to 8.00.

`CC(N)c1nc2c(c(=O)n(Cc3[nH]c4cccc(Cl)c4c3Cl)c(=O)n2C)n1C` (stereo not drawn) [Example 456, 8-(1-aminoethyl)-1-[(3,4-dichloro-1H-indol-2-yl)methyl]-3,7-dimethyl-purine-2,6-dione] had a pIC50 of 6.00 to 8.00.

The compound `Cn1c(N[C@@H]2CCCC[C@H]2O)nc2c1c(=O)n(Cc1ccc(C(F)(F)F)cc1)c(=O)n2C` [Example 113, 8-((1R,2R)-2-hydroxycyclohexylamino)-3,7-dimethyl-1-(4-(trifluoromethyl)benzyl)-1H-purine-2,6(3H,7H)-dione] showed a pIC50 below 5.00.

`CCn1c(=O)n(Cc2cc3c(Cl)cccc3[nH]2)c(=O)c2c1nc(Nc1ccncc1)n2C` [Example 361, 1-((4-chloro-1H-indol-2-yl)methyl)-3-ethyl-7-methyl-8-(pyridin-4-ylamino)-1H-purine-2,6(3H,7H)-dione] showed a pIC50 of 6.00 to 8.00.

In the case of `Cn1c(Nc2cccc(CCC(N)=O)n2)nc2c1c(=O)n(Cc1cc3c(Cl)cccc3[nH]1)c(=O)n2C` [Example 304, 3-(6-(1-((4-chloro-1H-indol-2-yl)methyl)-3,7-dimethyl-2,6-dioxo-2,3,6,7-tetrahydro-1H-purin-8-ylamino)pyridin-2-yl)propanamide], the pIC50 is 6.00 to 8.00.

In turn, `Cn1c(Nc2ccncc2)nc2c1c(=O)n(Cc1cc3ccncc3[nH]1)c(=O)n2C` [Example 393, 1-((1H-pyrrolo[2,3-c]pyridin-2-yl)methyl)-3,7-dimethyl-8-(pyridin-4-ylamino)-1H-purine-2,6(3H,7H)-dione] showed a pIC50 of 5.00 to 5.30.

In the case of `Cn1c(C2CCNC2)nc2c1c(=O)n(Cc1cc3c(Cl)cccc3[nH]1)c(=O)n2C` (stereo not drawn) [Example 425, 1-[(4-chloro-1H-indol-2-yl)methyl]-3,7-dimethyl-8-pyrrolidin-3-yl-purine-2,6-dione], the pIC50 was 6.00 to 8.00.

For `Cn1c(C(O)c2ccccc2)nc2c1c(=O)n(Cc1cc3c(Cl)cccc3[nH]1)c(=O)n2C` (stereo not drawn) [Example 388, 1-((4-chloro-1H-indol-2-yl)methyl)-8-(hydroxy(phenyl)methyl)-3,7-dimethyl-1H-purine-2,6(3H,7H)-dione], the pIC50 is 6.00 to 8.00.

With `Cn1c(N[C@@H]2CCOC2)nc2c1c(=O)n(Cc1ccc(Cl)c(Cl)c1)c(=O)n2C` [Example 63, 1-[(3,4-dichlorophenyl)methyl]-3,7-dimethyl-8-{[(3R)-oxolan-3-yl]amino}-2,3,6,7-tetrahydro-1H-purine-2,6-dione], the pIC50 is 6.00 to 8.00.

With `CN(C)C(=O)CCc1nccc(Nc2nc3c(c(=O)n(Cc4cc5c(Cl)cccc5[nH]4)c(=O)n3C)n2C)n1` [Example 405, 3-(4-(1-((4-chloro-1H-indol-2-yl)methyl)-3,7-dimethyl-2,6-dioxo-2,3,6,7-tetrahydro-1H-purin-8-ylamino)pyrimidin-2-yl)-N,N-dimethylpropanamide], the pIC50 is 6.00 to 8.00.

With `Cn1c(NC2CCCC(N)C2)nc2c1c(=O)n(Cc1ccc(Cl)c(Cl)c1)c(=O)n2C` (stereo not drawn) [Example 85, 8-((3-aminocyclohexyl)amino)-1-(3,4-dichlorobenzyl)-3,7-dimethyl-3,7-dihydro-1H-purine-2,6-dione], the pIC50 is 5.30 to 6.00.

On to `Cn1c(Nc2ccc(C(N)=O)cc2)nc2c1c(=O)n(Cc1ccc(Cl)c(Cl)c1)c(=O)n2C` [Example 313, 4-[[1-[(3,4-dichlorophenyl)methyl]-3,7-dimethyl-2,6-dioxo-purin-8-yl]amino]benzamide], for which the pIC50 was 6.00 to 8.00.

The compound `Cn1c(Nc2cccc([C@@H]3C[C@H]3C(=O)O)n2)nc2c1c(=O)n(Cc1cc3c(Cl)cccc3[nH]1)c(=O)n2C` (single isomer, unassigned) [Example 398, (1R,2R)-2-(6-((1-((4-chloro-1H-indol-2-yl)methyl)-3,7-dimethyl-2,6-dioxo-2,3,6,7-tetrahydro-1H-purin-8-yl)amino)pyridin-2-yl)cyclopropanecarboxylic acid or (1S,2S)-2-(6-((1-((4-chloro-1H-indol-2-yl)methyl)-3,7-dimethyl-2,6-dioxo-2,3,6,7-tetrahydro-1H-purin-8-yl)amino)pyridin-2-yl)cyclopropanecarboxylic acid] gave a negative logarithm of the IC50 (pIC50) of 6.00 to 8.00.

For `Cn1c(NC2CCCC(C(=O)O)C2)nc2c1c(=O)n(Cc1ccc(Cl)c(Cl)c1)c(=O)n2C` (racemic) [Example 114, (±)-3-(1-(3,4-dichlorobenzyl)-3,7-dimethyl-2,6-dioxo-2,3,6,7-tetrahydro-1H-purin-8-ylamino)cyclohexanecarboxylic acid], the pIC50 is 6.00 to 8.00.

`Cn1c(N[C@H]2CCC[C@@H](O)C2)nc2c1c(=O)n(Cc1ccc(Cl)c(Cl)c1)c(=O)n2C` (racemic) [Example 173, (±)-1-(3,4-dichlorobenzyl)-8-((cis)-3-hydroxycyclohexylamino)-3,7-dimethyl-1H-purine-2,6(3H,7H)-dione] gave a pIC50 of 6.00 to 8.00.

`COc1ccc2[nH]c(Cn3c(=O)c4c(nc(N)n4C)n(C)c3=O)cc2c1` [Example 243, 8-amino-1-((5-methoxy-1H-indol-2-yl)methyl)-3,7-dimethyl-1H-purine-2,6(3H,7H)-dione] gave a pIC50 below 5.00.

With `Cn1c(Nc2cccc(-c3ccccc3)n2)nc2c1c(=O)n(Cc1cc3c(Cl)cccc3[nH]1)c(=O)n2C` [Example 399, 1-[(4-chloro-1H-indol-2-yl)methyl]-3,7-dimethyl-8-[(6-phenyl-2-pyridyl)amino]purine-2,6-dione], the pIC50 is 5.30 to 6.00.

As to `Cn1c(N[C@@H]2CCC[C@H](C(=O)O)C2)nc2c1c(=O)n(Cc1ccc(Cl)c(Cl)c1)c(=O)n2C` (single isomer, unassigned) [Example 187, (1S,3R)-3-(1-(3,4-dichlorobenzyl)-3,7-dimethyl-2,6-dioxo-2,3,6,7-tetrahydro-1H-purin-8-ylamino)cyclohexanecarboxylic acid or (1R,3S)-3-(1-(3,4-dichlorobenzyl)-3,7-dimethyl-2,6-dioxo-2,3,6,7-tetrahydro-1H-purin-8-ylamino)cyclohexanecarboxylic acid], the pIC50 was 6.00 to 8.00.

On to `Cn1c(NCCC(C)(C)O)nc2c1c(=O)n(Cc1ccc(Cl)c(Cl)c1)c(=O)n2C` [Example 45, 1-[(3,4-dichlorophenyl)methyl]-8-[(3-hydroxy-3-methylbutyl)amino]-3,7-dimethyl-2,3,6,7-tetrahydro-1H-purine-2,6-dione], for which the pIC50 is 6.00 to 8.00.

`Cn1c(Nc2ncn[nH]2)nc2c1c(=O)n(Cc1cc3cc(Cl)ccc3[nH]1)c(=O)n2C` [Example 207, 8-(1H-1,2,4-triazol-5-ylamino)-1-((5-chloro-1H-indol-2-yl)methyl)-3,7-dimethyl-1H-purine-2,6(3H,7H)-dione] gave a pIC50 of 5.30 to 6.00.
